The source of these data is US20220348590A1, “CYCLOOXYGENASE-2 INHIBITORS AND USES THEREOF” (The Board Institute, Inc., priority 2019, published 2022).

Where two headings read alike, the source gives them in different places.

Series [1] concerns the target T1, human recombinant COX2 (hCOX2) (UniProt P35354).
T1 sequence (P35354 1-604): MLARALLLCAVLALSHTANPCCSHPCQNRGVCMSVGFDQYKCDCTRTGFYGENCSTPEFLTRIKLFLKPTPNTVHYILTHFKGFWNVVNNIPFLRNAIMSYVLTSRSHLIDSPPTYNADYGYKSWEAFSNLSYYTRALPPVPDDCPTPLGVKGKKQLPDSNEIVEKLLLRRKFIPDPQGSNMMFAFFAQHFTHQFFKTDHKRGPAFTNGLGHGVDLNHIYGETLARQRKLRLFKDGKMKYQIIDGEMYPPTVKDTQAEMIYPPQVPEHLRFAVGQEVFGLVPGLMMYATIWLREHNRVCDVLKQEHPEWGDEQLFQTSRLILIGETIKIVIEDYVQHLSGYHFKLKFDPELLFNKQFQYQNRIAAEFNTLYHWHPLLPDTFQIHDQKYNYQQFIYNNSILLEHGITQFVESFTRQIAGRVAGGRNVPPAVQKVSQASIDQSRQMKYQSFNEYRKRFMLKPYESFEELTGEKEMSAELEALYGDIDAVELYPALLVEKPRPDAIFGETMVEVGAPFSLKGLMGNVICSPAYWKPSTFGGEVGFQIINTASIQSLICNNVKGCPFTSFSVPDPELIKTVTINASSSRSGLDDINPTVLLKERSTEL
Kind of series: LCMS-based COX2 enzymatic inhibition assay (PGE2 quantification). Type of series: biochemical. Set-up: improvement in potency; other: COX2 potency relative to MC1 / earlier ligand; comparator not always stated; other: vs MC1 (MC-1). The following applies: COX2 potency relative to MC1 / earlier ligand; comparator not always stated. How it is done: (§1) We have adapted a previously reported cyclooxygenase enzymatic assay utilizing LCMS quantification of PGE2 as the product of COX-1 and COX2 catalyzed conversion of arachidonic acid to evaluate the binding properties of newly synthesized ligands [Cao, 2011]. These optimized and miniaturized (384-well plates) LCMS-based COX-1 and COX2 enzymatic assays enabled us to quickly evaluate newly synthesized ligands for COX2 binding affinity and selectivity vs COX-1. Using a shorter ligand-enzyme incubation time in the LCMS assay (2 minutes vs 10 minutes) also permitted us to prioritize ligands with faster binding kinetics. Considering the relatively slow on-rate kinetics of known coxibs, due to their 3-step binding mechanism [Marnett, 2009], we believe that optimizing this critical parameter will be key to the successful development of a COX2 PET tracer. Using these enzymatic assays, we have evaluated>200 newly synthesized ligands against COX2 and >20 ligands against COX-1. Another critical property necessary for a good PET radiotracer is to have low non-specific binding (NSB) to increase the free fraction and maximize the signal to noise ratio. This property can be evaluated using in-vitro protein binding assays, and we have now evaluated>50 newly synthesized ligands in mouse, rat and human plasma protein binding (PPB) assays as well as >15 ligands in a mouse brain protein binding (BPB) assay.
Ovine COX-1 (oCOX-1), ovine COX2 (oCOX2), human recombinant COX2 (hCOX2), arachidonic acid, PGE2, d4-PGD2, and […] (labeled with deuterium atoms at positions 3 and 4) were purchased from Cayman Chemicals (Ann Arbor, Mich.). The cofactors (−)epinephrine and hematin, and the COX inhibitors indomethacin, resveratrol and diclofenac were purchased from Sigma-Aldrich (St. Louis, Mo.). Celecoxib was purchased from 3B PharmaChem International (Wuhan, China). All organic solvents were HPLC grade or better and were purchased from Thermo Fisher (Hanover Park, Ill.). Formic acid was purchased from EMD Chemicals (San Diego, Calif.). Purified water was prepared by using a Millipore Milli-Q purification system (Millipore, Billerica, Mass.). All other chemicals and solvents were ACS reagent grade, unless stated otherwise.
In an Eppendorf tube, 146 μL of 100 mM Tris.HCl (pH 8.0) buffer, 2 μL of 100 μM hematin (co-factor) and 10 μL of 40 mM L-epinephrine (co-factor) were mixed at room temperature. […]
The concentration of PGE2 in each sample was measured using LC-MS-MS, and the percent of COX inhibition by each test solution was determined by comparing the amount of PGE2 produced in the experiment with that produced in the negative control incubation. The formation of PGD2 was measured for quality control purposes, since the levels of PGD2 should be proportional to those of PGE2. […]

Series [2] is described as follows: Mouse Microsome Stability. Type of series: in vitro ADME. The following applies: mouse microsomes.
A short description of series [3]: Human Microsome Stability. Type of series: in vitro ADME. To be noted: human microsomes.
The target of series [4] is T2, ovine COX-1 (oCOX-1) (Ovis aries, UniProt P05979).
T2 construct: purchased Cayman Chemicals (Ann Arbor, Mich.)
T2 sequence (P05979 25-600): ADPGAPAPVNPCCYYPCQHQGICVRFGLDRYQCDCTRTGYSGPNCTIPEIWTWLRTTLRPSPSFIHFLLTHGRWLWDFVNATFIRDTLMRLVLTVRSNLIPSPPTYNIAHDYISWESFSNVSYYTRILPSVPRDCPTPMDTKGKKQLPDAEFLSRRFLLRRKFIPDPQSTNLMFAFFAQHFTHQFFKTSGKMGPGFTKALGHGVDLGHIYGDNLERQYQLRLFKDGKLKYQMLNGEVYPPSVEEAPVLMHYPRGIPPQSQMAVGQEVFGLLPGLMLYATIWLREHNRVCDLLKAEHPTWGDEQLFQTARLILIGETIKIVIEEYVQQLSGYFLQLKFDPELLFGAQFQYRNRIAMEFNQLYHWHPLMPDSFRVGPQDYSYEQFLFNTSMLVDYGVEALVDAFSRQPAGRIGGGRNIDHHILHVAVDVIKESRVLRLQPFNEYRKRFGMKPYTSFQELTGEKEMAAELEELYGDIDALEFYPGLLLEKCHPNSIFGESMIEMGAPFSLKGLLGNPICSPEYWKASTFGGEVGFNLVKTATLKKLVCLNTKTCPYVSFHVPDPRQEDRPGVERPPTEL
Kind of series: LCMS-based COX-1 enzymatic inhibition assay (PGE2 quantification). Type of series: biochemical. The following applies: 10 minutes. The gist of the method: (§2)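 PGE2 formed from arachidonic acid (final 5 μM, 2 min) was measured by LC-MS-MS against DMSO controls. Enzyme (oCOX-1 0.1 μg or hCOX2 0.2 μg) with hematin/epinephrine cofactors at pH 8.0 was given 10 min at 37 °C with compound first. Twelve-point curves run three times gave IC50.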

The target of series [5] is T1, human recombinant COX2 (hCOX2). Kind of series: LCMS-based COX2 enzymatic inhibition assay (PGE2 quantification). Format: biochemical. Set-up: COX2 2 minutes pge2/pge2d4 area ratio Avg; other: 2 minutes; readout pge2/pge2d4 area ratio; average; COX2 2 minutes pge2/pge2d4 area ratio Avg; LLE; average LLE; COX2 2 minutes pge2 area (counts) Avg; readout pge2 area (counts); other: 2 min; "ovine COX2 (oCOX2), human recombinant COX2 (hCOX2)". The following applies: for COX2 2 minutes pge2/pge2d4 area ratio Avg. LLE / COX2 2 minutes pge2 area (counts) Avg. LLE / COX2 10 minutes pge2 area (counts) Avg. LLE: average LLE; for IC50: average. The gist of the method:
as §2

Series [6] is described as follows: in-vitro protein binding: free fraction / fraction unbound, matrix and species not given. Format: in vitro ADME. Here is the method:
as §1

[7] abbreviates: pge2 area (counts), head of this section not shown, inferred.
[8] abbreviates: 2 minutes, readout pge2/pge2d4 area ratio.
Where [9] appears, read: 2 minutes, readout pge2/pge2d4 area ratio, read-out: COX2 2 minutes pge2/pge2d4 area ratio Avg. IC50.
[10] abbreviates: 2 minutes, readout pge2 area (counts).
The mark [11] stands for this setting: 2 minutes, readout pge2 area (counts), read-out: COX2 2 minutes pge2 area (counts) Avg. IC50.
The mark [12] stands for this setting: 10 minutes, readout pge2 area (counts).
[13] abbreviates: 10 minutes, readout pge2 area (counts), read-out: COX2 10 minutes pge2 area (counts) Avg. IC50.

For `COc1cc(OCc2cccs2)nc(-c2ccc(S(C)(=O)=O)cc2)n1` [Compound 331], the improvement in potency in series [1] was 10 fold.
On to `CS(=O)(=O)c1ccc(-c2cncc(NCc3ccco3)n2)cc1` [Compound 120], for which the “Mouse Microsome Stability % Remaining Avg” value in series [2] is listed as 1.6%. For the same compound, in series [3], the “Human Microsome Stability % Remaining Avg” value stood at 32.4%. The “COX1 10 minutes pge2 area (counts) Avg. LLE” value in series [4] (setting [7]) came to 2.724. In addition, the “COX2 2 minutes pge2/pge2d4 area ratio Avg. LLE” value in series [5] (setting [8]) is reported as 5.371. Also, the IC50 in series [5] (setting [9]) was found to be 118 nM; in series [5] (setting [11]), 124 nM; in series [5] (setting [13]) it was 11.5 nM. Moreover, in series [5] (setting [10]), the “COX2 2 minutes pge2 area (counts) Avg. LLE” value (shortened to “COX2 2 minutes pge2 area”) stood at 5.44. The “COX2 10 minutes pge2 area (counts) Avg. LLE” value in series [5] (setting [12]) is on record as 6.397.
As a reminder, the fraction unbound is free concentration divided by total concentration. Read a low fraction unbound as little free substance. Take `COc1ncc(-c2ccc(S(C)(=O)=O)cc2)nc1NCc1cccs1` [Compound 116]: in series [1], the improvement in potency is on record as ~6 fold. The “COX2 2 minutes pge2/pge2d4 area ratio Avg. LLE” value in series [5] (setting [8]) is 4.506. In addition, the figures for the IC50 in series [5] (setting [9]) and in series [5] (setting [11]) were 108 nM and 99.9 nM, respectively. The “COX2 2 minutes pge2 area” value in series [5] (setting [10]) is 4.564. In series [6], this compound returned a fraction unbound of 0.025.
As to `CS(=O)(=O)c1ccc(-c2cncc(NCc3ccc(F)cc3)n2)cc1` [Compound 96], the “Mouse Microsome Stability % Remaining Avg” value in series [2] is on record as 30.5%. The “Human Microsome Stability % Remaining Avg” value in series [3] is 54.9%. The “COX1 10 minutes pge2/pge2d4 area ratio Avg. LLE” value in series [4] (pge2/pge2d4 area ratio, head of this section not shown, inferred) came to 2.186. The “COX1 10 minutes pge2 area (counts) Avg. LLE” value in series [4] (setting [7]) amounted to 2.128. For the same compound, the IC50 in series [4] (pge2 area (counts), head of this section not shown, inferred, read-out: COX1 10 minutes pge2 area (counts) Avg. IC50) was 39000 nM; in series [4] (readout pge2/pge2d4 area ratio, average, read-out: COX1 10 minutes pge2/pge2d4 area ratio Avg. IC50), 34200 nM; in series [5] (setting [9]), 74.2 nM; in series [5] (setting [11]), 85 nM; in series [5] (setting [13]), 7.94 nM. Further, the “COX2 2 minutes pge2/pge2d4 area ratio Avg. LLE” value in series [5] (setting [8]) came to 4.85. Moreover, the “COX2 2 minutes pge2 area” value in series [5] (setting [10]) turned out to be 4.897. The “COX2 10 minutes pge2 area (counts) Avg. LLE” value in series [5] (setting [12]) is 5.83.
